Laboratory results as given in ChEMBL document CHEMBL1201862, “PubChem BioAssay data set” (2004).
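A five-concentration, 48-hour dose response in 96-well plates underlies each endpoint, interpolated linearly between surrounding concentrations. GI50 is the concentration that inhibits growth by half.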 Calls of active or inactive are those of the source. Rule as the data show it: active = GI50 up to about 1.1 µM and inactive = higher.

Columns and labels:
Test in all cases: DTP human tumour cell line panel, 48 h
M19-MEL = tested on: M19-MEL
LXFL 529 = tested on: LXFL 529
DMS-273 = tested on: DMS-273
DLD-1 = tested on: DLD-1
SNB-78 = tested on: SNB-78
HOP-18 = tested on: HOP-18
RXF 631 = tested on: RXF 631
XF498 = tested on: XF498
KM-20L2 = tested on: KM-20L2

## CCOc1ccccc1C=C1c2ccccc2C(=O)c2ccccc21
M19-MEL
  GI50: 5.93 µM (inactive)
LXFL 529
  GI50: 6.98 µM (inactive)
DMS-273
  GI50: 0.535 µM (active)
DLD-1
  GI50: 2.55 µM (inactive)
SNB-78
  GI50: 5.75 µM (inactive)

## NC(=O)/C(=N\NC(=O)c1cc2ccccc2cc1O)C1C(=O)N(c2ccccc2)N=C1N (stereo not drawn)
HOP-18
  GI50: 17.5 µM (inactive)
RXF 631
  GI50: 37.3 µM (inactive)
XF498
  GI50: 37.6 µM (inactive)
M19-MEL
  GI50: 30.6 µM (inactive)
LXFL 529
  GI50: 59.3 µM (inactive)
KM-20L2
  GI50: 32.9 µM (inactive)
DLD-1
  GI50: 34 µM (inactive)
SNB-78
  GI50: 69.8 µM (inactive)

## CN(C)C=[N+]=[N-]
HOP-18
  GI50: > 100 µM (inactive)
XF498
  GI50: > 100 µM (inactive)
M19-MEL
  GI50: > 100 µM (inactive)
LXFL 529
  GI50: > 100 µM (inactive)
DMS-273
  GI50: > 100 µM (inactive)
KM-20L2
  GI50: > 100 µM (inactive)
DLD-1
  GI50: > 100 µM (inactive)
SNB-78
  GI50: > 100 µM (inactive)

## CCOC(=O)Cc1ccc2c(c1O)C(=O)c1c(ccc(CC(=O)OCC)c1O)C2=O
HOP-18
  GI50: 28.4 µM (inactive)
XF498
  GI50: > 100 µM (inactive)
M19-MEL
  GI50: > 100 µM (inactive)
LXFL 529
  GI50: > 100 µM (inactive)
DMS-273
  GI50: > 100 µM (inactive)
KM-20L2
  GI50: > 100 µM (inactive)
DLD-1
  GI50: > 100 µM (inactive)
SNB-78
  GI50: > 100 µM (inactive)

## S=P1(c2ccccc2)Nc2ccc(Cl)cc2N1 (stereo not drawn)
HOP-18
  GI50: > 100 µM (inactive)
RXF 631
  GI50: 85.7 µM (inactive)
XF498
  GI50: > 100 µM (inactive)
M19-MEL
  GI50: 14.2 µM (inactive)
LXFL 529
  GI50: 17.6 µM (inactive)
DMS-273
  GI50: > 100 µM (inactive)
KM-20L2
  GI50: > 100 µM (inactive)
DLD-1
  GI50: > 100 µM (inactive)
SNB-78
  GI50: 23.5 µM (inactive)

## COc1ccccc1NC(=O)CC(=O)N1N=C(C)C(/N=N/c2ccc(S(N)(=O)=O)cc2)C1=O (stereo not drawn)
HOP-18
  GI50: > 100 µM (inactive)
XF498
  GI50: > 100 µM (inactive)
M19-MEL
  GI50: > 100 µM (inactive)
LXFL 529
  GI50: > 100 µM (inactive)
DMS-273
  GI50: > 100 µM (inactive)
KM-20L2
  GI50: > 100 µM (inactive)
DLD-1
  GI50: > 100 µM (inactive)
SNB-78
  GI50: > 100 µM (inactive)

## O=C(Cl)c1cc([N+](=O)[O-])cc([N+](=O)[O-])c1
XF498
  GI50: > 100 µM (inactive)
M19-MEL
  GI50: > 100 µM (inactive)
LXFL 529
  GI50: > 100 µM (inactive)
DMS-273
  GI50: > 100 µM (inactive)
DLD-1
  GI50: > 100 µM (inactive)
SNB-78
  GI50: > 100 µM (inactive)

## COc1cccc(NC(=O)CC(=O)N2N=C(N3c4ccccc4Sc4ccccc43)CC2c2ccccc2)c1 (stereo not drawn)
HOP-18
  GI50: 9.48 µM (inactive)
XF498
  GI50: > 100 µM (inactive)
M19-MEL
  GI50: > 100 µM (inactive)
LXFL 529
  GI50: > 100 µM (inactive)
KM-20L2
  GI50: > 100 µM (inactive)
DLD-1
  GI50: > 100 µM (inactive)
SNB-78
  GI50: > 100 µM (inactive)

## O=C1/C(=C/c2ccc(Cl)cc2)CCC1CN1CCOCC1 (stereo not drawn)
HOP-18
  GI50: 13.9 µM (inactive)
RXF 631
  GI50: 8.36 µM (inactive)
XF498
  GI50: 2.55 µM (inactive)
LXFL 529
  GI50: 2.58 µM (inactive)
DMS-273
  GI50: 3.06 µM (inactive)
KM-20L2
  GI50: 10.7 µM (inactive)
DLD-1
  GI50: 2.52 µM (inactive)
SNB-78
  GI50: 12.5 µM (inactive)

## O=C(Nc1cc([N+](=O)[O-])cc([N+](=O)[O-])c1)OC1C2CCC1C1OC1C2 (stereo not drawn)
M19-MEL
  GI50: > 50 µM (inactive)
KM-20L2
  GI50: > 50 µM (inactive)
DLD-1
  GI50: > 50 µM (inactive)
SNB-78
  GI50: > 50 µM (inactive)

## CC(=O)[O-].[O-]c1c(Cl)cc(Cl)cc1/C=N/Nc1ccccn1.[Zn+2]
M19-MEL
  GI50: 0.745 µM (active)
LXFL 529
  GI50: 0.436 µM (active)
KM-20L2
  GI50: 3.7 µM (inactive)
DLD-1
  GI50: 0.415 µM (active)

## CCNC(=O)C(O)C1(O)CCC2[C@@H]3CCC4=CC(=O)C=C[C@]4(C)C3[C@@H](O)C[C@@]21C (stereo partly drawn)
HOP-18
  GI50: 33.3 µM (inactive)
RXF 631
  GI50: > 100 µM (inactive)
XF498
  GI50: > 100 µM (inactive)
M19-MEL
  GI50: > 100 µM (inactive)
LXFL 529
  GI50: > 100 µM (inactive)
DMS-273
  GI50: > 100 µM (inactive)
KM-20L2
  GI50: > 100 µM (inactive)
DLD-1
  GI50: > 100 µM (inactive)
SNB-78
  GI50: > 100 µM (inactive)

## CC(=O)OC1CCC2(C)C(CCC3C2CCC2(C)C(c4ccc(=O)oc4)C(OC(C)=O)CC32O)C1 (stereo not drawn)
HOP-18
  GI50: 0.0125 µM (active)
XF498
  GI50: 0.0244 µM (active)
DMS-273
  GI50: 0.0125 µM (active)
KM-20L2
  GI50: 0.0188 µM (active)
DLD-1
  GI50: 0.0155 µM (active)
SNB-78
  GI50: 0.0164 µM (active)

## C=C(CN(C)C)C(=O)c1ccc(OC)cc1
HOP-18
  GI50: 3.78 µM (inactive)
XF498
  GI50: 1.93 µM (inactive)
M19-MEL
  GI50: 2.07 µM (inactive)
LXFL 529
  GI50: 1.69 µM (inactive)
DMS-273
  GI50: 3.8 µM (inactive)
KM-20L2
  GI50: 5.13 µM (inactive)
DLD-1
  GI50: 0.427 µM (active)
SNB-78
  GI50: 2.36 µM (inactive)

## CNC=O
HOP-18
  GI50: > 10000 µM (inactive)
XF498
  GI50: > 9550 µM (inactive)
M19-MEL
  GI50: > 10000 µM (inactive)
DMS-273
  GI50: > 10000 µM (inactive)
KM-20L2
  GI50: > 10000 µM (inactive)
DLD-1
  GI50: > 10000 µM (inactive)
SNB-78
  GI50: > 7830 µM (inactive)

## O=C1C=CC(=C(c2ccc(O)cc2)c2ccc(O)cc2)C=C1 [AURIN]
HOP-18
  GI50: 16.4 µM (inactive)
RXF 631
  GI50: 15 µM (inactive)
XF498
  GI50: 11.7 µM (inactive)
LXFL 529
  GI50: 3.18 µM (inactive)
DMS-273
  GI50: 6.78 µM (inactive)
KM-20L2
  GI50: 16.5 µM (inactive)
DLD-1
  GI50: 10.3 µM (inactive)
SNB-78
  GI50: 5.11 µM (inactive)
